Eleven compounds from US10047084B2, “Imidazolone derivatives, pharmaceutical compositions and uses thereof” (BEIJING FORELANDPHARMA CO. LTD., priority 2013, dated 2018) can be followed below.

What all share (type): cell-based
In one experiment the test system is MV-4-11. The experiment in a line: CTG cell survival assay, MV-4-11. As to conditions: Homo sapiens, MV4-11, MV-4-11 cells. From the text: (§1) 2. CTG Cell Survival Assay:
(§2) ATP is necessarily produced during the metabolic activities of viable cells, and there is a linear relationship between the content of ATP and the number of viable cells. Cell viability assay by CTG chemiluminescence is a general method for detecting the number of viable cells in the culture cells based on this principle. The addition of the CellTiter-Glo (CTG) reagent may induce cell lysis and produce chemiluminescent signals directly proportional to the amount of ATP in the well-plate, and thereby the cell proliferation activity in the well-plate can be measured by the reading values from the chemiluminescence.
(§3) 2.1 Experimental Materials and Instruments:
2.1.1 Experimental Materials: compounds to be tested, cell basal culture medium, RPMI Medium 1640 (Invitrogen, Cat#11875-093), fetal calf serum (FBS): Hyclone FETAL BOVINE SERUM DEFINED (Invitrogen, Cat#SH30070.03), antibiotics: Penicilin Streptomycin (Invitrogen, Cat#15140-122), phosphate buffer (Corning Cellgro, Cat#R21-040-CV), cell digestive solution: 0.25% Trypsin-EDTA (Invitrogen, Cat#25200-056), CTG detection kit: Promega, Cat#G7571, flat-bottom 96-well black bottom plate: NUNC, Cat#165305, T25 culture flask: NUNC, Cat#156367, T75 culture flask: NUNC, Cat#156439
2.2 Experimental Instruments: Carbon Dioxide Incubator, SANYO-MCO-20AIC, Biosafe Cabinet: BSC-1360-LIIA2, Table-Top High-Speed Refrigerated Centrifuge: SorvallST 16R, Microplate Rapid Oscillator: QB-9001, M3 Reader: SpectraMax M3, Microscope: OLYMPUS-CKX41/CKX31.
2.3 Preparation of Solutions and Reagents: Formulation of cell growth medium: RPMI Medium 1640+10% FBS+antibiotics, others: trypsin digestive solution, phosphate buffer (PBS), DMSO, CTG detection kit.
2.4 Experimental Procedure: • 1.4.1 Cell Thawing: Cryogenic vials were removed from the liquid nitrogen container, directly immersed in a water bath at 37° C., and shaked from time to time to thaw. The cryogenic vials were removed from the water bath at 37° C., and transferred to the biosafe cabinet. Their lids were opened, and the cell suspensions were aspirated with pipettes, added to centrifuge tubes, and then added with more than 10 volumes of culture solution, mixed well; centrifuged for 5 min at 1000 rpm; the supernatant was discarded, and medium containing cell growth was added to resuspend cells. All cell suspensions were seeded to the T25 culture flasks and static cultured in an incubator at 37° C.; the culture solution were changed once on the next day, and continued to be cultured. • 2.4.2 Cell Passaging: After cells were grown to logarithmic phase and were 80%-90% confluent, cells were removed and placed in the biosafe cabinet, the old culture solution was discarded, and the cells were wetted and washed with PBS once or twice. An appropriate amount of 0.25% Trypsin-EDTA solution was added to the culture flasks. The flasks were placed in the carbon dioxide incubator at 37° C. for 2-5 min. An appropriate amount of cell growth medium containing 10% PBS was added to terminate the digestion, lightly swished, and transferred to the centrifuge tubes and centrifuged for 5 min at 1000 rpm. The cells were prepare (into cell suspensions for passaging and experimental use. • 2.4.3 Cell Plating • 2.4.3.1 A cell suspension was prepared: After cells were grown to logarithmic phase and were 80%-90% confluent, the cells were removed to the biosafe cabinet, and the old culture solution was discarded, then the cells were wetted and washed with PBS once or twice. An appropriate amount of 0.25% Trypsin-EDTA solution was added to the culture flask. The flask was placed in a carbon dioxide incubator at 37° C. for 2-5 min. An appropriate amount of the cell growth medium containing 10% PBS was added to terminate digestion, and was lightly swished. The solution was transferred to a centrifuge tube, centrifuged for 5 min at 1000 rpm, and counted. […]

The next experiment has as its system SK-BR3/BT474. The experiment in a line: CTG cell survival assay, SK-BR3/BT474. As to conditions: SK-BR3/BT474 cells.
Description: as §1, §2, §3
(§4) 2.4 Experimental Procedure: • 1.4.1 Cell Thawing: Cryogenic vials were removed from the liquid nitrogen container, directly immersed in a water bath at 37° C., and shaked from time to time to thaw. The cryogenic vials were removed from the water bath at 37° C., and transferred to the biosafe cabinet. Their lids were opened, and the cell suspensions were aspirated with pipettes, added to centrifuge tubes, and then added with more than 10 volumes of culture solution, mixed well; centrifuged for 5 min at 1000 rpm; the supernatant was discarded, and medium containing cell growth was added to resuspend cells. All cell suspensions were seeded to the T25 culture flasks and static cultured in an incubator at 37° C.; the culture solution were changed once on the next day, and continued to be cultured. • 2.4.2 Cell Passaging: After cells were grown to logarithmic phase and were 80%-90% confluent, cells were removed and placed in the biosafe cabinet, the old culture solution was discarded, and the cells were wetted and washed with PBS once or twice. An appropriate amount of 0.25% Trypsin-EDTA solution was added to the culture flasks. The flasks were placed in the carbon dioxide incubator at 37° C. for 2-5 min. An appropriate amount of cell growth medium containing 10% PBS was added to terminate the digestion, lightly swished, and transferred to the centrifuge tubes and centrifuged for 5 min at 1000 rpm. The cells were prepare (into cell suspensions for passaging and experimental use. • 2.4.3 Cell Plating • 2.4.3.1 A cell suspension was prepared: After cells were grown to logarithmic phase and were 80%-90% confluent, the cells were removed to the biosafe cabinet, and the old culture solution was discarded, then the cells were wetted and washed with PBS once or twice. An appropriate amount of 0.25% Trypsin-EDTA solution was added to the culture flask. The flask was placed in a carbon dioxide incubator at 37° C. for 2-5 min. An appropriate amount of the cell growth medium containing 10% PBS was added to terminate digestion, and was lightly swished. The solution was transferred to a centrifuge tube, centrifuged for 5 min at 1000 rpm, and counted. […] Secondly, 20 uM of the compound to be tested was diluted with the cell growth medium containing 0.2% DMSO in 3-fold dilution to obtain 9 concentrations, and there were 10 concentration gradients in total. • 2.4.4.3 Addition of the compounds to be tested: the prepared gradient dilution solutions of compounds to be tested were taken and added to the cell culture plate at 100 ul/well; at this point, the maximum concentration of compounds to be tested was 10 uM, and the concentration of DMSO was 0.1%.

A further experiment relates to PC-3. As to the kind of experiment: CTG cell survival assay, PC-3. The conditions noted are these: Homo sapiens, PC-3 cells.
Description: as §1, §2, §3, §4

In the case of `CC(=O)N[C@H]1CC[C@@H](n2c(=O)n(C)c3cnc4ccc(-c5ccc(-c6cnn(C)c6)nc5)cc4c32)CC1` [Example 33, N-((1s,4s)-4-(3-methyl-8-(6-(1-methyl-1H-pyrazol-4-yl)pyridin-3-yl)-2-oxo-2,3-dihydro-1H-imidazo[4,5-c]quinolin-1-yl)cyclohexyl)acetamide], the EC50 (as a rule, the concentration giving half of the maximal effect) with MV-4-11 is less than 500 nM; in the experiment on SK-BR3/BT474 it was less than 100 nM; with PC-3 it was less than 200 nM.

Regarding `CCNC(=O)N1CCC[C@@H](n2c(=O)n(C)c3cnc4ccc(-c5ccc(-c6cnn(C)c6)nc5)cc4c32)C1` [Example 55, (R)—N-ethyl-3-(3-methyl-8-(6-(1-methyl-1H-pyrazol-4-yl)pyridin-3-yl)-2-oxo-2,3-dihydro-1H-imidazo[4,5-c]quinolin-1-yl)piperidine-1-formamide], the EC50 with MV-4-11 amounted to 800 nM; in the experiment with SK-BR3/BT474, 300 nM; in the experiment with PC-3 it was 300 nM.

For `Cn1ccc(-c2ccc(-c3ccc4ncc5c(c4c3)n([C@H]3CCN(S(C)(=O)=O)C3)c(=O)n5C)cn2)n1` [Example 47, (S)-3-methyl-8-(6-(1-methyl-1H-pyrazol-3-yl)pyridin-3-yl)-1-(1-(methanesulfonyl)pyrrolidin-3-yl)-1H-imidazo[4,5-c]quinolin-2(3H)-one], the EC50 in the experiment with MV-4-11 was less than 100 nM; in the experiment with SK-BR3/BT474, 40 nM; in the experiment with PC-3, 30 nM.

Turning to `Cn1cc(-c2ccc(-c3ccc4ncc5c(c4c3)n(C3CCN(S(C)(=O)=O)CC3)c(=O)n5C)cn2)cn1` [Example 59, 3-methyl-8-(6-(1-methyl-1H-pyrazol-4-yl)pyridin-3-yl)-1-(1-(methanesulfonyl)piperidin-4-yl)-1H-imidazo[4,5-c]quinolin-2(3H)-one], the figures for the EC50 in the experiment on MV-4-11, in the experiment on SK-BR3/BT474 and in the experiment on PC-3 were 100 nM, less than 100 nM and 30 nM, respectively.

In the case of `Cn1cc(-c2ccc(-c3ccc4ncc5c(c4c3)n(C3CCN(S(C)(=O)=O)CC3)c(=O)n5C)cn2)nn1` [Example 60, 3-methyl-8-(6-(1-methyl-1H-1,2,3-triazol-4-yl)pyridin-3-yl)-1-(1-(methanesulfonyl)piperidin-4-yl)-1H-imidazo[4,5-c]quinolin-2(3H)-one], the concentration giving a half-maximal response (EC50) in the experiment on MV-4-11 was less than 100 nM; in the experiment with SK-BR3/BT474, 40 nM; in the experiment with PC-3 it was less than 30 nM.

`Cn1c(=O)n([C@H]2CC[C@H](O)CC2)c2c3cc(-c4ccc(-c5ccccc5)nc4)ccc3ncc21` [Example 25, 1-((1r,4r)-4-hydroxycyclohexyl)-3-methyl-8-(6-phenylpyridin-3-yl)-1H-imidazo[4,5-c]quinolin-2(3H)-one]: the EC50 in the experiment on MV-4-11 was less than 500 nM; in the experiment on SK-BR3/BT474, less than 500 nM; in the experiment with PC-3 it was less than 100 nM.

For the compound `Cn1c(=O)n([C@H]2CCN(S(C)(=O)=O)C2)c2c3cc(-c4ccc(-n5cccn5)nc4)ccc3ncc21` [Example 44, (S)-8-(6-(1H-pyrazol-1-yl)pyridin-3-yl)-3-methyl-1-(1-(methanesulfonyl)pyrrolidin-3-yl)-1H-imidazo[4,5-c]quinolin-2(3H)-one], the concentration for a half-maximal effect (EC50) with MV-4-11 was 40 nM; in the experiment on SK-BR3/BT474, 90 nM; with PC-3 it was less than 50 nM.

In the case of `Cn1cc(-c2ccc(-c3ccc4ncc5c(c4n3)n([C@@H]3CCCN(S(C)(=O)=O)C3)c(=O)n5C)cn2)cn1` [Example 49, (R)-3-methyl-8-(6-(1-methyl-1H-pyrazol-4-yl)pyridin-3-yl)-1-(1-(methanesulfonyl)piperidin-3-yl)-1H-imidazo[4,5-c][1,5]naphthyridin-2(3H)-one], the EC50 with MV-4-11 is less than 20 nM; with SK-BR3/BT474, 20 nM; in the experiment on PC-3 it was 10 nM.

Turning to `Cn1cc(-c2ccc(-c3ccc4ncc5c(c4c3)n([C@H]3CC[C@@H](NS(C)(=O)=O)CC3)c(=O)n5C)cn2)cn1` [Example 34, N-((1s,4s)-4-(3-methyl-8-(6-(1-methyl-1H-pyrazol-4-yl)pyridin-3-yl)-2-oxo-2,3-dihydro-1H-imidazo[4,5-c]quinolin-1-yl)cyclohexyl)methanesulfonamide], the concentration for a half-maximal effect (EC50) was less than 200 nM in the experiment on MV-4-11, less than 50 nM in the experiment with SK-BR3/BT474 and less than 100 nM in the experiment with PC-3.

In the case of `Cn1cc(-c2ccc(-c3ccc4ncc5c(c4c3)n([C@H]3CC[C@@H](O)CC3)c(=O)n5C)cn2)nn1` [Example 51, 1-((1s,4s)-4-hydroxycyclohexyl)-3-methyl-8-(6-(1-methyl-1H-1,2,3-triazol-4-yl)pyridin-3-yl)-1H-imidazo[4,5-c]quinolin-2(3H)-one], the EC50 in the experiment on MV-4-11 is less than 20 nM; in the experiment with SK-BR3/BT474, 10 nM; with PC-3 it was less than 10 nM.

Take `Cn1cc(-c2ccc(-c3ccc4ncc5c(c4n3)n([C@H]3CCN(S(C)(=O)=O)C3)c(=O)n5C)cn2)nn1` [Example 50, (S)-3-methyl-8-(6-(1-methyl-1H-1,2,3-triazol-4-yl)pyridin-3-yl)-1-(1-(methanesulfonyl)pyrrolidin-3-yl)-1H-imidazo[4,5-c][1,5]naphthyridin-2(3H)-one]: the concentration for a half-maximal effect (EC50) with MV-4-11 is less than 30 nM; in the experiment with SK-BR3/BT474, 30 nM; in the experiment on PC-3, 20 nM.
